Assay [1] relates to Hela cells expressing HU and TMTX resistance gene. Kind of assay: Hydroxyurea and Trimetrexate cytotoxic assay: selective enrichment of transduced (GFP positive) Hela cells by FACS. The assay is classed as cell-based. As to conditions: three days, FIG. 2. How it is done:
Control and transduced Hela cells were incubated with HU and TMTX for 3 days, after which survival rate of both cell population were measured by FACS analysis. Hela cells were transduced with lentivector expressing GFP and the Hydroxyurea or Trimetrexate resistance genes. Three to five days after transduction, cell transduction efficiency was determined by measuring GFP fluorescence. Transduced Hela cells were treated with the appropriate concentration of cytotoxic compounds and survival rate were measured by FACS analysis. Next, the ability of either HU or TMTX to selectively enrich transduced Hela cells was evaluated by FACS. Hela cells were transduced as outlined above and then cultured in control media or media including 25 μM HU, 100 μM HU, 1 nM TMTX or 10 nM TMTX. After culture in the indicated conditions for three days, the proportion of transduced cells (GFP positive) versus non-transduced cells was determined by FACS and the results plotted.

Assay [2] relates to GFP expressing blood cells. The experiment in a line: In vivo selective enrichment of blood cells expressing HU resistance gene after bone marrow transplantation. Set-up: species or system C57/B16 mice. The procedure:
FIG. 3: In vivo selective enrichment of blood cells expressing HU and TMTX resistance gene. Bone marrow transplantation experiments were performed in C57/b16 mice. Total bone marrow was obtained from large bones of C57/B16 mice and maintained for 24 h in IMDM medium supplemented with 100 ng/ml of SCF. Bone marrow cells were then transduced with 10^9 lentivector particles for 8 hours before being injected into the tail vein of irradiated C57/B16 mice. Six to eight weeks later, blood samples were taken and GFP expression was measured by FACS. After which mice were injected intraperitoneally with either HU or TMTX with initial doses of HU of 200, 500 and 1000 mg/kg per day and initial doses of TMTX of 10, 25, 50 mg/kg with 2 injections per week. GFP expressing blood cells were measured once a week. (A) Irradiated mice, transplanted with bone marrow cells and transduced with a lentivector expressing GFP and the hydroxyurea resistance (GFP-HU).
In order to more directly assess the ability of HU and TMTX to select cells in vivo studies were undertaken in mice injected with transduced cells. […] Six to eight weeks later, blood samples were taken and GPF expression was measured by FACS. […] GFP expressing blood cells were measured once a week.

In the case of `NC(=O)NO` [HU, Hydroxyurea], the “selection of transduced cells (GFP positive versus non-transduced, FACS)” value in assay [1] (25 μM HU and 100 μM HU) is reported as “modest selection”. Moreover, in assay [2] (irradiated mice transplanted with bone marrow cells transduced with GFP-HU lentivector, hydroxyurea-treated, FIG. 3A), the “transient increase in GFP-positive leukocytes” value is “up to 8%”. Moreover, the “circulating GFP positive cells” value in assay [2] (some treated animals, one week after HU injection, intraperitoneal, transient increase, FIG. 3) was 5%-10%.
Take `COc1cc(NCc2ccc3nc(N)nc(N)c3c2C)cc(OC)c1OC` [TMTX, Trimetrexate]: the “selection of transduced cells (GFP positive versus non-transduced, FACS)” value in assay [1] (10 nM TMTX (tested at 1 nM and 10 nM)) is “significant selection”.

These data come from patent US20160010094A1, “TRANSGENIC CELL SELECTION” (UNIVERSITE DE GENEVE, priority 2013, published 2016).
